Reference: patent US20230026271A1, “Piperazine Compounds for Inhibiting CPS1” (Eisai R&D Management Co., Ltd., priority 2019, published 2023)

Target: T1, CPS1 (Homo sapiens, UniProt P31327)
T1 construct: The full length, human CPS1 gene was cloned into pFastBac HTA; His6 (from the pFastBac HTA vector); made in house; host or cells: SF21 insect cells (baculovirus, Bac-to-bac)
T1 sequence (P31327 39-1500): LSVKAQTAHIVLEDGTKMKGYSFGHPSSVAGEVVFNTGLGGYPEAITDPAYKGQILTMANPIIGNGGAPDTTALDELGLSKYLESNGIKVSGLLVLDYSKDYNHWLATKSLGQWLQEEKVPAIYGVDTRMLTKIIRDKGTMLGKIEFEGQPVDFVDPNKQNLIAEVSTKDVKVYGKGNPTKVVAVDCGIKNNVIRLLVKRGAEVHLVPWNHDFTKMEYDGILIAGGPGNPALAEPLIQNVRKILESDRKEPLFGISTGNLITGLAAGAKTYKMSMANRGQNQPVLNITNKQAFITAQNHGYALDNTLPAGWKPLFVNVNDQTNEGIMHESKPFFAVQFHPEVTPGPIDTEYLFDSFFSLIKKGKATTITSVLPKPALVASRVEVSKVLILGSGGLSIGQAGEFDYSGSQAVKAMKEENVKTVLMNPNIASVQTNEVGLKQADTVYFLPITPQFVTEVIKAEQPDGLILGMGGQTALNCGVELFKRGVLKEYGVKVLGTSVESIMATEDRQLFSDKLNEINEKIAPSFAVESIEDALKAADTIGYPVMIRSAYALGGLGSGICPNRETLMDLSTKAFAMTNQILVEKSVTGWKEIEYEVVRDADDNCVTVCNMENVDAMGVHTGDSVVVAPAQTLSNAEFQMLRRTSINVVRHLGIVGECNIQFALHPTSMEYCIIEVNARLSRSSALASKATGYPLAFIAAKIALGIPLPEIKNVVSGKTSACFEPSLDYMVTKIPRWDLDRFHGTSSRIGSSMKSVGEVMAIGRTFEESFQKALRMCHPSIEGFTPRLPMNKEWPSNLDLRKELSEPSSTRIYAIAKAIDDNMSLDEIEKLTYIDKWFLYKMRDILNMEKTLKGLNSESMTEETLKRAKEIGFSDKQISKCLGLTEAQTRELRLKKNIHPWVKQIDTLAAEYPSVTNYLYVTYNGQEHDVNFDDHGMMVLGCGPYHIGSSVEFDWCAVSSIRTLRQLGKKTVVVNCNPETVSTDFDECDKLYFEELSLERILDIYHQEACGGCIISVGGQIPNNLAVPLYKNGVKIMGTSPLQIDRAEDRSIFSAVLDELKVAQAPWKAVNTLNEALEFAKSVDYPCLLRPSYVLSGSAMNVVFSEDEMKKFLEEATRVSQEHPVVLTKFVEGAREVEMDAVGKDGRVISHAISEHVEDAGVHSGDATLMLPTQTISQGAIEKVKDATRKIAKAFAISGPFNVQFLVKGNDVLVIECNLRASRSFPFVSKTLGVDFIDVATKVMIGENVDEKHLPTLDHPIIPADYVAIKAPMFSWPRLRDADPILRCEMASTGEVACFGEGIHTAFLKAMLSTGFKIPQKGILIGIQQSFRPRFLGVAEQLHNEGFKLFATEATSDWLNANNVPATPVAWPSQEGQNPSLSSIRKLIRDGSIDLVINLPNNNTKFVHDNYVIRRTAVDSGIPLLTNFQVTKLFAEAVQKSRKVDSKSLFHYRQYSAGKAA
Experiment: ADP-Glo endpoint assay measuring the ATPase activity of CPS1
Type: biochemical
Conditions: geometric mean of a minimum of two values; 50 nM CPS1, 10 μM ATP, 0.2 mM NAG, 60 min at room temperature; read-out: ADPGlo IC50
Procedure: CPS1 was expressed and purified from SF21 insect cells. The full length, human CPS1 gene was cloned into pFastBac HTA and baculovirus was generated using the Bac-to-bac expression system from Invitrogen. P3 virus was used to infect SF21 insect cells at a density of 1.5E6 cells/mL at an MOI of 2. Cells were harvested by centrifugation after 60 hrs and the cell pellet resuspended in lysis buffer (50 mM glycyl glycine pH 7.4, 20 mM KCl, 1 mM TCEP, 10% glycerol and 20 mM imidazole with Roche protease inhibitor tablet) before being lysed with 40 strokes of a Dounce homogenizer on ice. The insoluble fraction of the lysate was then cleared by centrifugation at 30,000 rpm for 30 min. 40 mL of supernatant was mixed with 2 mL of Ni NTA beads for 45 min at 4° C. in a 50 mL conical tube.
The beads were washed with 40 mL of wash buffer (50 mM glycyl glycine pH 7.4, 500 mM NaCl, 1 mM TCEP, 10% glycerol and 50 mM imidazole) by centrifugation and resuspension of the beads three times. Bound CPS1 protein was eluted in 6 mL of elution buffer (50 mM glycyl glycine pH 7.4, 500 mM NaCl, 1 mM TCEP, 10% glycerol and 250 mM imidazole) three times. Elution fractions were combined and concentrated using an Amicon Ultra centrifugation filter with a 10,000 molecular weight cut off. Imidazole was removed by repeated concentration and resuspension in storage buffer in the filter device (50 mM glycyl glycine pH 7.4, 500 mM NaCl, 1 mM TCEP and 20% glycerol). CPS1 was concentrated to a final concentration of ˜3 mg/mL before being aliquoted, flash frozen in liquid nitrogen and stored at −80° C.
CPS1 activity was measured and compounds profiled in an endpoint assay measuring the ATPase activity of CPS1 using the ADP-Glo kit from Promega. 50 nM CPS1 was incubated alone or with varying amounts of tested compound from DMSO stocks in assay buffer (50 mM HEPES pH 7.0, 12.5 mM KHCO3, 1.5 mM (NH4)2SO3, 5 mM MgCl2, 50 mM KCl, 1 mM TCEP, 0.01% TritonX 100, 0.0025% BSA and 0.2 mM NAG) for 20 min in a 3 μL volume in a 384-well plate (Corning Cat#3820). The final concentration of DMSO was 0.04%. The reaction was initiated by the addition of 10 μM ATP, bringing the final volume to 6 μL. After 60 min at room temperature, the reaction was terminated with 3 μL ADP-Glo reagent and incubated at room temperature for 30 min. 3 μL of kinase detection reagent was then added and luminescent signal measured on an Envision plate reader after 30 min.

| SMILES | IC50 [µM] |
| --- | --- |
| COc1ccc(C(=O)N2C[C@@H](C)N(C(=O)c3ccc(-n4cnnn4)cc3)[C@H](C)C2)c(F)c1 [Compound 41, ((3R,5R)-4-(4-(1H-Tetrazol-1-yl)benzoyl)-3,5-dimethylpiperazin-1-yl)(2-fluoro-4-methoxyphenyl)methanone] | 10.4 |
| COc1ccc(C(=O)N2C[C@@H](C)N(C(=O)c3ccc(CCO)cc3)[C@H](C)C2)c(F)c1 [Compound 42, ((2R,6R)-4-(2-Fluoro-4-methoxybenzoyl)-2,6-dimethylpiperazin-1-yl)(4-(2-hydroxyethyl)phenyl)methanone] | 10.7 |
| COc1ccc(C(=O)N2C[C@@H](C)N(C(=O)c3ccc4cc(C)[nH]c4c3)[C@H](C)C2)c(F)c1 [Compound 43, ((3R,5R)-3,5-Dimethyl-4-(2-methyl-1H-indole-6-carbonyl)piperazin-1-yl)(2-fluoro-4-methoxyphenyl)methanone] | 11.4 |
| COc1ccc(C(=O)N2CCN(C(=O)c3ccc(OC)cc3F)CC2)c(F)c1 [Compound 44, Piperazine-1,4-diylbis((2-fluoro-4-methoxyphenyl)methanone)] | 7.78 |
| COc1ccc(C(=O)N2CCN(C(=O)c3ccc(OC)cc3F)C(C)C2)c(F)c1 (stereo not shown) [Compound 45, (2-Methylpiperazine-1,4-diyl)bis((2-fluoro-4-methoxyphenyl)methanone)] | 5.21 |
| COc1ccc(C(=O)N2CCN(C(=O)c3ccc(OC)cc3F)[C@H](C)C2)c(F)c1 [Compound 46, (R)-(2-methylpiperazine-1,4-diyl)bis((2-fluoro-4-methoxyphenyl)methanone)] | 6.04 |
| COc1ccc(C(=O)N2C[C@H](C)N(C(=O)c3ccc(OC)cc3F)C[C@H]2C)c(F)c1 [Compound 47, ((2S,5R)-2,5-dimethylpiperazine-1,4-diyl)bis((2-fluoro-4-methoxyphenyl)methanone)] | 0.714 |
| COc1ccc(C(=O)N2CCN(C(=O)c3ccc(OC)cc3F)C(C)(C)C2)c(F)c1 [Compound 48, (2,2-Dimethylpiperazine-1,4-diyl)bis((2-fluoro-4-methoxyphenyl)methanone)] | 4.68 |
| COc1ccc(C(=O)N2C[C@H](C)N(C(=O)c3ccc(OC)cc3F)[C@@H](C)C2)c(F)c1 [Compound 49, ((2S,6S)-2,6-Dimethylpiperazine-1,4-diyl)bis((2-fluoro-4-methoxyphenyl)methanone)] | 6.56 |
| COc1ccc(C(=O)N2C[C@@H](C)N(C(=O)c3ccc(OC)cc3F)[C@@H](C)C2)c(F)c1 [Compound 50, ((2R,6S)-2,6-Dimethylpiperazine-1,4-diyl)bis((2-fluoro-4-methoxyphenyl)methanone)] | 6.98 |

Second part, the molecule after the results:

| IC50 [µM] | SMILES |
| --- | --- |
| 2.78 | COc1ccc(C(=O)N2CCN(C(=O)c3ccc(OC)cc3F)[C@@H](C)C2)c(F)c1 [Compound 51, (S)-(2-Methylpiperazine-1,4-diyl)bis((2-fluoro-4-methoxyphenyl)methanone)] |
| 0.193 | COc1ccc(OC)c2[nH]c(C(=O)N3[C@H](C)CN(C(=O)c4ccc5cc[nH]c5c4)C[C@H]3C)cc12 [Compound 52, ((2R,6R)-4-(1H-indole-6-carbonyl)-2,6-dimethylpiperazin-1-yl)(4,7-dimethoxy-1H-indol-2-yl)methanone] |
| 1.59 | COc1ccc(OC)c2[nH]c(C(=O)N3C[C@@H](C)N(C(=O)c4ccc5cc[nH]c5c4)[C@H](C)C3)cc12 [Compound 53, ((3R,5R)-4-(1H-indole-6-carbonyl)-3,5-dimethylpiperazin-1-yl)(4,7-dimethoxy-1H-indol-2-yl)methanone] |
| 2.12 | COc1ccc(OC)c2[nH]c(C(=O)N3CCN(C(=O)c4ccc5cc[nH]c5c4)CC3)cc12 [Compound 54, (4-(1H-indole-6-carbonyl)piperazin-1-yl)(4,7-dimethoxy-1H-indol-2-yl)methanone] |
| 2.13 | COc1ccc(C(=O)N2C[C@@H](C)N(C(=O)c3cc4cc(O)ccc4[nH]3)[C@H](C)C2)c(F)c1 [Compound 55, ((2R,6R)-4-(2-fluoro-4-methoxybenzoyl)-2,6-dimethylpiperazin-1-yl)(5-hydroxy-1H-indol-2-yl)methanone] |
| 3.28 | COc1ccc(C(=O)N2[C@H](C)CN(C(=O)c3c[nH]c4c(C)cccc34)C[C@H]2C)c(F)c1 [Compound 56, ((2R,6R)-2,6-dimethyl-4-(7-methyl-1H-indole-3-carbonyl)piperazin-1-yl)(2-fluoro-4-methoxyphenyl)methanone] |
| 3.3 | COc1ccc(C(=O)N2C[C@@H](C)N(C(=O)c3cc4ccccc4[nH]3)[C@H](C)C2)c(F)c1 [Compound 57, ((3R,5R)-4-(1H-indole-2-carbonyl)-3,5-dimethylpiperazin-1-yl)(2-fluoro-4-methoxyphenyl)methanone] |
| 4.05 | COc1ccc(C(=O)N2[C@H](C)CN(C(=O)c3c[nH]c4c(F)cccc34)C[C@H]2C)c(F)c1 [Compound 58, (7-fluoro-1H-indol-3-yl)((3R,5R)-4-(2-fluoro-4-methoxybenzoyl)-3,5-dimethylpiperazin-1-yl)methanone] |
| 5.58 | COc1ccc(C(=O)N2[C@H](C)CN(C(=O)c3cc4ccccc4[nH]3)C[C@H]2C)c(F)c1 [Compound 59, ((2R,6R)-4-(1H-indole-2-carbonyl)-2,6-dimethylpiperazin-1-yl)(2-fluoro-4-methoxyphenyl)methanone] |
| 7.39 | COc1ccc(C(=O)N2[C@H](C)CN(C(=O)c3c[nH]c4ccc(Cl)cc34)C[C@H]2C)c(F)c1 [Compound 61, (5-chloro-1H-indol-3-yl)((3R,5R)-4-(2-fluoro-4-methoxybenzoyl)-3,5-dimethylpiperazin-1-yl)methanone] |
| 10.5 | COc1ccc(C(=O)N2[C@H](C)CN(c3ncnc4cc(OC)ccc34)C[C@H]2C)c(F)c1 [Compound 62, (2-fluoro-4-methoxyphenyl)((2R,6R)-4-(7-methoxyquinazolin-4-yl)-2,6-dimethylpiperazin-1-yl)methanone] |
| 4.74 | COc1ccc(C(=O)N2C[C@@H](C)N(C(=O)c3ccc(OC)cc3)[C@H](C)C2)cc1 [Compound 63, ((2R,6R)-2,6-dimethylpiperazine-1,4-diyl)bis((4-methoxyphenyl)methanone)] |
